≈ marks a conversion by molar mass, not a printed value. Where two headings read alike, the source gives them in different places.
How the values were obtained:
CHI Log D procedure = assay type: physicochemical; conditions: for chromatographic logD: pH 7.4, CHI Log D; for CHI Log D: pH 7.4
[1] = target: T1, full-length beta-Catenin (Uniprot ID P35222) (Homo sapiens, UniProt P35222); test: Fluorescence polarization IC50 (beta-catenin / 5FAM-TCF4 10-53 competition); assay type: binding
T1 construct: 10 nM full-length beta-Catenin (Uniprot ID P35222)
T1 sequence (P35222 1-781): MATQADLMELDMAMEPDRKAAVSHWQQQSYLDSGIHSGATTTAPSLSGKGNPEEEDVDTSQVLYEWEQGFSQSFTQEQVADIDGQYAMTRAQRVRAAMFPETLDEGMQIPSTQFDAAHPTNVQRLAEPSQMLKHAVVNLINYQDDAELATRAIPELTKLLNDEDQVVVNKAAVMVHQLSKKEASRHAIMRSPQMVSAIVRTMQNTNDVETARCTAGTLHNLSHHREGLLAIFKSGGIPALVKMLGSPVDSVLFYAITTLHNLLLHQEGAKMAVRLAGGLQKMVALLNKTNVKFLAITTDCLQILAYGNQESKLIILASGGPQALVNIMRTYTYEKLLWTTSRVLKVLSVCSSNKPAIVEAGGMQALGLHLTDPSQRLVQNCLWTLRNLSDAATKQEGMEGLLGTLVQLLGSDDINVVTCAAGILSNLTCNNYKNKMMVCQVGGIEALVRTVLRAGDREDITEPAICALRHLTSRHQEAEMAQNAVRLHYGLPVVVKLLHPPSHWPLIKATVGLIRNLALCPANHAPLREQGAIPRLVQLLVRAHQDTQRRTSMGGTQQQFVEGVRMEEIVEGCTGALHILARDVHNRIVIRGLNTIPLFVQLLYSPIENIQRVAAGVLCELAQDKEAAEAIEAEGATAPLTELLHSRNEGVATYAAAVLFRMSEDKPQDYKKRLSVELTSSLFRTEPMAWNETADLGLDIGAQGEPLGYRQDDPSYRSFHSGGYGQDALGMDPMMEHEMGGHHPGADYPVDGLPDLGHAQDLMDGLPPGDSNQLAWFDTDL

[2] = target: T2, beta-catenin/TCF4 engagement (Homo sapiens, UniProt P35222); test: Nano-BRET target engagement assay (B-cat-Halo & TCF4-Luc in HEK293 cells); assay type: cell-based; conditions: read-out: NanoBRET Abs IC50
T2 construct: expressed in transfected cells; host or cells: HEK293
T2 sequence (P35222 1-781): T1 sequence (P35222 1-781)

Solubility in PBS = assay type: physicochemical
Summary of the method: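 Solubility is derived from HPLC peak areas: the ratio of the PBS supernatant peak to a 50 μM DMSO peptide peak, times 50 uM.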

[3] = fluorescence polarization, read-out: beta-Catenin FP IC50

Row | SMILES | chromatographic logD (CHI Log D procedure) | IC50 ([1]; read-out: beta-Catenin FP IC50) [µM] | IC50 [2] [µM] | Solubility (Solubility in PBS) [µM] | Solubility (Solubility in PBS; Solubility (uM)) [µM] | CHI Log D (CHI Log D procedure) | IC50 [1, 3] [µM] | IC50 ([1]; read-out: FP EC50) [µM] | IC50 ([2]; absolute IC50) [µM]
1 | CC(=O)N1CCC[C@]12CC=CCCCC1(CCCC=CCCCCCC[C@@](C)(C(=O)N[C@@H](Cc3ccccc3Cl)C(=O)N[C@@H](Cc3csc4ccccc34)C(=O)N[C@@H](CCC(N)=O)C(N)=O)NC(=O)[C@H](CC(C)C)NC(=O)[C@H](Cc3ccccc3)NC(=O)[C@H](C)NC(=O)[C@H](C)NC(=O)[C@H](CCC(=O)O)NC(=O)[C@H](CC(=O)O)NC1=O)NC(=O)[C@H](CC(C)(C)C)NC(=O)[C@H](CC(=O)O)NC2=O (stereo partly drawn) [I-1096, Ac-PL3-Asp-Npg-B5-Asp-Glu-Ala-Ala-Phe-Leu-S8-2C1F-BztA-Gln-NH2] | 3.18 | 0.017 | 8.6 | 10 (≈ 19.2 µg/mL) | – | – | – | – | –
2 | CC(=O)N1CCC[C@]12CC=CCCCC1(CCCC=CCCCOC(=O)N3CC[C@@](C(=O)N[C@@H](Cc4ccsc4)C(=O)N[C@@H](Cc4csc5ccccc45)C(=O)N[C@@H](CCC(N)=O)C(N)=O)(C3)NC(=O)[C@H](CC(N)=O)NC(=O)[C@H](Cc3ccccc3)NC(=O)[C@H](CCCCNC(=O)CN3CCN(C)CC3)NC(=O)[C@H](C)NC(=O)[C@H](CC(=O)O)NC(=O)[C@H](CC(=O)O)NC1=O)NC(=O)[C@H](CC(C)(C)C)NC(=O)[C@H](CC(=O)O)NC2=O (stereo partly drawn) [I-887, Ac-PL3-Asp-Npg-B5-Asp-Asp-Ala-[MePipAc]Lys-Phe-Asn-PyrS2-3Thi-BztA-Gln-NH2] | 1.37 | 0.014 | > 20 | – | 46 (≈ 97.3 µg/mL) | – | – | – | –
3 | CC(=O)N1CCC[C@]12CC=CCCCC1(CCCC=CCCCCCC[C@@](C)(C(=O)N[C@@H](Cc3ccccc3)C(=O)N[C@@H](Cc3csc4ccccc34)C(=O)N[C@@H](CO)C(N)=O)NC(=O)[C@H](CC(N)=O)NC(=O)[C@H](Cc3ccccc3)NC(=O)[C@H](C)NC(=O)[C@H](C)NC(=O)[C@H](CCC(=O)O)NC(=O)[C@H](CC(=O)O)NC1=O)NC(=O)[C@H](CC(C)C)NC(=O)[C@H](CC(=O)O)NC2=O (stereo partly drawn) [I-750, Ac-PL3-Asp-Leu-B5-Asp-Glu-Ala-Ala-Phe-Asn-S8-Phe-BztA-Ser-NH2] | – | – | – | 48 (≈ 87.7 µg/mL) | – | 2.441 | 0.043 | 0.043 | 7.4
4 | CC(=O)N1CCC[C@]12CC=CCCCC1(CCCC=CCCCOC(=O)N3CC[C@@](C(=O)N[C@@H](Cc4ccsc4)C(=O)N[C@@H](Cc4csc5ccccc45)C(=O)N[C@@H](Cc4c[nH]cn4)C(N)=O)(C3)NC(=O)[C@H](CC(N)=O)NC(=O)[C@H](Cc3ccccc3)NC(=O)[C@H](C)NC(=O)[C@H](C)NC(=O)[C@H](CCCNC(N)=O)NC(=O)[C@H](CC(=O)O)NC1=O)NC(=O)[C@H](CC(C)(C)C)NC(=O)[C@H](CC(=O)O)NC2=O (stereo partly drawn) [I-841, Ac-PL3-Asp-Npg-B5-Asp-Cit-Ala-Ala-Phe-Asn-PyrS2-3Thi-BztA-His-NH2] | 2.26 | 0.012 | – | – | 14 (≈ 27.6 µg/mL) | – | – | – | 34.4
5 | CC(=O)N1CCC[C@]12CC=CCCCC1(CCCC=CCCCOC(=O)N3CC[C@@](C(=O)N[C@@H](Cc4ccsc4)C(=O)N[C@@H](Cc4csc5ccccc45)C(=O)N[C@@H](CCC(N)=O)C(N)=O)(C3)NC(=O)[C@H](CC(N)=O)NC(=O)[C@H](Cc3ccccc3)NC(=O)[C@H](C)NC(=O)[C@H](C)NC(=O)[C@H](CC(=O)O)NC(=O)[C@H](CC(=O)O)NC1=O)NC(=O)[C@H](CC(C)C)NC(=O)[C@H](CC(=O)O)NC2=O (stereo partly drawn) [I-688, Ac-PL3-Asp-Leu-B5-Asp-Asp-Ala-Ala-Phe-Asn-PyrS2-3Thi-BztA-Gln-NH2] | – | – | – | 46 (≈ 87.6 µg/mL) | – | 1.924 | 0.006 | 0.006 | 30.1
6 | CC(=O)N1CCC[C@]12CC=CCCCC1(CCCC=CCCCOC(=O)N3CC[C@@](C(=O)N[C@@H](Cc4ccsc4)C(=O)N[C@@H](Cc4ccc5ccccc5c4)C(=O)N[C@@H](Cc4c[nH]cn4)C(N)=O)(C3)NC(=O)[C@H](CC(N)=O)NC(=O)[C@H](Cc3ccccc3)NC(=O)[C@H](C)NC(=O)[C@H](C)NC(=O)[C@H](CC(=O)O)NC(=O)[C@H](CC(=O)O)NC1=O)NC(=O)[C@H](CC(C)(C)C)NC(=O)[C@H](CC(=O)O)NC2=O (stereo partly drawn) [I-790, Ac-PL3-Asp-Npg-B5-Asp-Asp-Ala-Ala-Phe-Asn-PyrS2-3Thi-2NapA-His-NH2] | 2.12 | 0.024 | > 20 | 50 (≈ 96.1 µg/mL) | – | – | – | – | –
7 | CC[C@H](C)[C@@H]1NC(=O)[C@H](CC(=O)O)NC(=O)[C@]2(CC=CCCCC3(CCCC=CCCCCCC[C@@](C)(C(=O)N[C@@H](Cc4ccsc4)C(=O)N[C@@H](Cc4csc5ccccc45)C(=O)N[C@@H](CCC(N)=O)C(N)=O)NC(=O)[C@H](CC(N)=O)NC(=O)[C@H](Cc4ccccc4)NC(=O)[C@H](C)NC(=O)[C@H](C)NC(=O)[C@H](CN(CC(=O)O)CC(F)(F)F)NC(=O)[C@H](CC(=O)O)NC3=O)NC1=O)CCCN2C(C)=O (stereo partly drawn) [I-701, Ac-PL3-Asp-Ile-B5-Asp-TfeGA-Ala-Ala-Phe-Asn-S8-3Thi-BztA-Gln-NH2] | – | – | – | 46 (≈ 90.7 µg/mL) | – | 2.631 | 0.034 | 0.034 | 18.1
8 | CC(=O)N1CCC[C@]12CC=CCCCC1(CCCC=CCCCOC(=O)N3CC[C@@](C(=O)N[C@@H](Cc4ccccc4Cl)C(=O)N[C@@H](Cc4csc5ccccc45)C(=O)N[C@@H](CCC(N)=O)C(N)=O)(C3)NC(=O)[C@H]([C@@H](C)O)NC(=O)[C@H](Cc3ccccc3)NC(=O)[C@H](C)NC(=O)[C@H](C)NC(=O)[C@H](CC(N)=O)NC(=O)[C@H](CC(=O)O)NC1=O)NC(=O)[C@H](CC(C)(C)C)NC(=O)[C@H](CC(=O)O)NC2=O (stereo partly drawn) [I-1014, Ac-PL3-Asp-Npg-B5-Asp-Asn-Ala-Ala-Phe-Thr-PyrS2-2C1F-BztA-Gln-NH2] | 2.38 | 0.019 | 14.3 | 10 (≈ 19.3 µg/mL) | – | – | – | – | –
9 | CC[C@@H]1NC(=O)[C@H](CC(=O)O)NC(=O)[C@]2(CC=CCCCC3(CCCC=CCCCCCC[C@@](C)(C(=O)N[C@@H](Cc4ccccc4)C(=O)N[C@@H](Cc4csc5ccccc45)C(=O)N[C@@H](Cc4c[nH]cn4)C(N)=O)NC(=O)[C@H](CC(N)=O)NC(=O)[C@H](Cc4ccccc4)NC(=O)[C@H](C)NC(=O)[C@H](C)NC(=O)[C@H](CC(=O)O)NC(=O)[C@H](CC(=O)O)NC3=O)NC1=O)CCCN2C(C)=O (stereo partly drawn) [I-574, Ac-PL3-Asp-Abu-B5-Asp-Asp-Ala-Ala-Phe-Asn-S8-Phe-BztA-His-NH2] | – | – | – | 48 (≈ 88.1 µg/mL) | – | 2.16 | 0.036 | 0.036 | > 20
10 | CC(=O)N1CCC[C@]12CC=CCCCC1(CCCC=CCCCCCC[C@@](C)(C(=O)N[C@@H](Cc3ccccc3)C(=O)N[C@@H](Cc3csc4ccccc34)C(=O)N[C@@H](CCC(N)=O)C(N)=O)NC(=O)[C@H](CC(N)=O)NC(=O)[C@H](Cc3ccccc3)NC(=O)[C@H](C)NC(=O)[C@H](C)NC(=O)[C@H](CCC(=O)O)NC(=O)[C@H](CC(=O)O)NC1=O)NC(=O)[C@H](CC(C)C)NC(=O)[C@H](CC(=O)O)NC2=O (stereo partly drawn) [I-576, Ac-PL3-Asp-Leu-B5-Asp-Glu-Ala-Ala-Phe-Asn-S8-Phe-BztA-Gln-NH2] | – | – | – | 46 (≈ 86 µg/mL) | – | 2.348 | 0.023 | 0.023 | 11.1
11 | CC(=O)N1CCC[C@]12CC=CCCCC1(CCCC=CCCCCCC[C@@](C)(C(=O)N[C@@H](Cc3ccsc3)C(=O)N[C@@H](Cc3csc4ccccc34)C(=O)N[C@@H](CCC(N)=O)C(N)=O)NC(=O)[C@H](CC(N)=O)NC(=O)[C@H](Cc3ccccc3)NC(=O)[C@H](C)NC(=O)[C@H](C)NC(=O)[C@H](CC(=O)O)NC(=O)[C@H](CC(=O)O)NC1=O)NC(=O)[C@H](CC(C)C)NC(=O)[C@H](CC(=O)O)NC2=O (stereo partly drawn) [I-680, Ac-PL3-Asp-Leu-B5-Asp-Asp-Ala-Ala-Phe-Asn-S8-3Thi-BztA-Gln-NH2] | – | – | – | 47 (≈ 87.5 µg/mL) | – | 2.215 | 0.032 | 0.032 | 34.4
12 | CC(=O)N1CCC[C@]12CC=CCCCC1(CCCC=CCCCOC(=O)N3CC[C@@](C(=O)N[C@@H](Cc4ccsc4)C(=O)N[C@@H](Cc4csc5ccccc45)C(=O)N[C@@H](CCC(N)=O)C(N)=O)(C3)NC(=O)[C@H](CC(N)=O)NC(=O)[C@H](Cc3ccccc3)NC(=O)[C@H](CCCCNC(=O)CN3CCOCC3)NC(=O)[C@H](C)NC(=O)[C@H](CC(=O)O)NC(=O)[C@H](CC(=O)O)NC1=O)NC(=O)[C@H](CC(C)(C)C)NC(=O)[C@H](CC(=O)O)NC2=O (stereo partly drawn) [I-886, Ac-PL3-Asp-Npg-B5-Asp-Asp-Ala-[MorphAc]Lys-Phe-Asn-PyrS2-3Thi-BztA-Gln-NH2] | 1.51 | 0.022 | > 20 | – | 43 (≈ 90.4 µg/mL) | – | – | – | –

From patent publication US20240116985A1, “STAPLED PEPTIDES AND METHODS THEREOF” (priority 2020, published 2024)
